Test results as given in PubChem BioAssay AID1963450 (Molecular Pharmacology Branch, DTP, NCI, 2024).
Several values for one entry are separate records, joined by “and”; a condition that tells them apart may be missing. Identical values can stand only once.

Tested on: 556581-035-R-J1-PDC complex spheroid growth
Experiment: Anticancer human tumor 556581-035-R-J1-PDC patient-derived ovarian carcinoma cell line growth inhibition [Asc]
Details: for viability, T/C: stronger effect = lower value
Method: Multicellular complex tumor spheroid response to apoptosis pathway targeting inhibitors Alrizomadlin, Pelcitoclax, and Dasminapant in combination with a variety of drugs and investigational agents in selected tumor cell lines
The MDM2 inhibitor alrizomadlin, the Bcl-2/Bcl-xL inhibitor pelcitoclax, and the IAPs inhibitor dasminapant were evaluated both individually and in combination with standard of care and investigational anticancer small molecules within a complex spheroid model of solid tumors. . Complex spheroids include a stromal component modeled by human endothelial cells (HUVEC) and fibroblasts modeled by human mesenchymal stem cells (MSCs). The concentration ranges selected for each drug and investigational agent were based upon clinically achievable concentrations if the clinical Cmax of the agent was known.
Compounds. The drugs and investigational agents: alrizomadlin (APG-115; NSC831270), pelcitoclax (APG-1252; NSC835773), dasminapant (APG-1387;NSC834197), TAK-243 (NSC785004), copanlisib (NSC809693), olaparib (NSC753686), talazoparib (NSC767125), cobimetinib (NSC 768068), eltanexor (KPT-8602, NSC 794443), abemaciclib (NSC 768073), sotorasib (NSC818433), adagrasib (NSC 831453), MRTX-1133 (NSC 836407), Iadademestat (ORY1001, NSC 806812), and RMC-4630 (NSC839698), were obtained from the NCI Developmental Therapeutics Program Chemical Repository. The FDA-approved anticancer drug set is available from the Developmental Therapeutics Program at https://dtp.cancer.gov/organization/dscb/obtaining/available plates.htm. […] The stock solutions were prepared in dimethyl sulfoxide (DMSO, Sigma-Aldrich, St. Louis, MO, cat. D2650) at 800-fold the tested concentration and stored at -70 degrees C prior to their use. All drugs and investigational agents were tested over a range starting from a high concentration at or near the clinical Cmax and decreasing in half-log increments. If the clinical Cmax for an agent had not been determined, the highest concentration tested was 10 microM.
The patient-derived cancer (PDC) cell lines include five colon adenocarcinomas: 186277-243-T-J2-PDC, 616215-338-R-J1-PDC, 439559-082-T-J2-PDC, 463943-066-T-J2-PDC, and 519858-162-T-J1-PDC; three pancreatic carcinomas: 323965-272-R-J2-PDC, 521955-158-R6-J3-PDC, and 521955-158-R2-J5-PDC; two uterine sarcomas: 327498-152-R-J2-PDC and 993429-296-R-J1-PDC; two rhabdomyosarcomas: 755483-174-R-J1-PDC and 772245-204-R-J1-PDC; two soft tissue sarcomas: 126254-015-R-J1-PDC and 494315-158-R-J1-PDC; two malignant fibrous histiocytomas: 317291-083-R-J1-PDC and 596521-263-R-J1-PDC; two breast carcinomas: 171881-019-R-J1-PDC and 885512-296-R-J2-PDC; and one ovarian carcinoma: 6556581-035-R-J-PDC were obtained from the NCI PDMR, (https://pdmr.cancer.gov). The established cell lines HSSY-2 synovial sarcoma (RRID:CVCL 8719), SYO-1 synovial sarcoma (RRID:CVCL_7146), MPNST malignant peripheral neural sheath tumor were obtained from the Sloan Kettering Institute. The following established cell lines were purchased from the American Type Culture Collection (ATCC, Manassas, VA), Sor the received from the NCI repository:, PANC-1 pancreatic carcinoma (CRL-1469, RRID:CVCL_0480), OVCAR-5 ovarian carcinoma (RRID:CVCL_1628), OVCAR-8 ovarian carcinoma (RRID:CVCL_1629), , MCF-7 breast carcinoma (CRL-12584, RRID:CVCL_0031), MDA-MB-231 breast carcinoma (CRL-12532, RRID:CVCL_0062), NCI-H1876 small cell lung carcinoma (CRL-5902, RRID:CVCL_1503), NCI-H510A small cell lung carcinoma (HTB-184, RRID:CVCL_1565), NCI-H1417 (CRL-5869, RRID:CVCL_1469), and NCI-H196 small cell lung carcinoma (CRL-5823, RRID:CVCL_1509). Dr. Peter Houghton (Greehey Children's Cancer Research Institute, University of Texas Health Science Center, San Antonio, TX) provided Rh-18 rhabdomyosarcoma (RRID:CVCL_1659). Pooled donor human umbilical vein endothelial cells (HUVEC, Lonza, cat. CC-2519) and human mesenchymal stem cells (hMSC, Lonza, cat. PT-2501) were purchased from Lonza (Walkersville, MD).
Cell Culture. […]
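Note: spheroids exposed to agents for 7 days before viability read.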

## NC1CCC(NC2CC2c2ccccc2)CC1 (configuration not stated) + CCN1C(C(=O)NC23CCC(C(=O)O)(CC2)CC3)C(c2cccc(Cl)c2F)C2(C(=O)Nc3cc(Cl)ccc32)C12CCCCC2
Curve of first compound, second compound 0.03 µM
  IC50: > 100 nM
Curve of first compound, second compound 0.0949 µM
  IC50: > 100 nM
Curve of first compound, second compound 0.3 µM
  IC50: > 100 nM
Curve of first compound, second compound 0.949 µM
  IC50: > 100 nM
Curve of first compound, second compound 3 µM
  IC50: > 100 nM
Second compound 0.03 µM, first compound 0.000316 µM
  viability, T/C: 105%
Second compound 0.03 µM, first compound 0.001 µM
  viability, T/C: 103%
Second compound 0.03 µM, first compound 0.00316 µM
  viability, T/C: 107%
Second compound 0.03 µM, first compound 0.01 µM
  viability, T/C: 98.7%
Second compound 0.03 µM, first compound 0.0316 µM
  viability, T/C: 97.7%
Second compound 0.03 µM, first compound 0.1 µM
  viability, T/C: 84.5%
Second compound 0.0949 µM, first compound 0.000316 µM
  viability, T/C: 113%
Second compound 0.0949 µM, first compound 0.001 µM
  viability, T/C: 105%
Second compound 0.0949 µM, first compound 0.00316 µM
  viability, T/C: 100%
Second compound 0.0949 µM, first compound 0.01 µM
  viability, T/C: 93%
Second compound 0.0949 µM, first compound 0.0316 µM
  viability, T/C: 107%
Second compound 0.0949 µM, first compound 0.1 µM
  viability, T/C: 103%
Second compound 0.3 µM, first compound 0.000316 µM
  viability, T/C: 108%
Second compound 0.3 µM, first compound 0.001 µM
  viability, T/C: 100%
Second compound 0.3 µM, first compound 0.00316 µM
  viability, T/C: 105%
Second compound 0.3 µM, first compound 0.01 µM
  viability, T/C: 100%
Second compound 0.3 µM, first compound 0.0316 µM
  viability, T/C: 97.7%
Second compound 0.3 µM, first compound 0.1 µM
  viability, T/C: 96.6%
Second compound 0.949 µM, first compound 0.000316 µM
  viability, T/C: 107%
Second compound 0.949 µM, first compound 0.001 µM
  viability, T/C: 92.1%
Second compound 0.949 µM, first compound 0.00316 µM
  viability, T/C: 82.9%
Second compound 0.949 µM, first compound 0.01 µM
  viability, T/C: 106%
Second compound 0.949 µM, first compound 0.0316 µM
  viability, T/C: 95.2%
Second compound 0.949 µM, first compound 0.1 µM
  viability, T/C: 96.5%
Second compound 3 µM, first compound 0.000316 µM
  viability, T/C: 85.7%
Second compound 3 µM, first compound 0.001 µM
  viability, T/C: 101%
Second compound 3 µM, first compound 0.00316 µM
  viability, T/C: 89.1%
Second compound 3 µM, first compound 0.01 µM
  viability, T/C: 85.1%
Second compound 3 µM, first compound 0.0316 µM
  viability, T/C: 92.8%
Second compound 3 µM, first compound 0.1 µM
  viability, T/C: 92.7%

## O=C(c1cc(Cc2n[nH]c(=O)c3ccccc23)ccc1F)N1CCN(C(=O)C2CC2)CC1
Compound 0.0316 µM
  viability, T/C: 102% and 112% and 91.3%
Compound 0.1 µM
  viability, T/C: 107% and 101% and 99.2%
Compound 0.316 µM
  viability, T/C: 106% (2×) and 60%
Compound 1 µM
  viability, T/C: 95.7% and 85.4% and 88.8%
Compound 3.16 µM
  viability, T/C: 106% and 98.3% and 72.7%
Compound 10 µM
  viability, T/C: 81.1% and 83.3% and 78.6%
Curve of compound
  IC50: > 10000 nM

## NC1CCC(NC2CC2c2ccccc2)CC1 (configuration not stated) + CNC(C)C(=O)NC1CN(S(=O)(=O)c2cccc(S(=O)(=O)N3CCC4CCC(C(=O)NC(c5ccccc5)c5ccccc5)N4C(=O)C(NC(=O)C(C)NC)C3)c2)CCC2CCC(C(=O)NC(c3ccccc3)c3ccccc3)N2C1=O
Curve of first compound, second compound 0.01 µM
  IC50: > 100 nM
Curve of first compound, second compound 0.0316 µM
  IC50: > 100 nM
Curve of first compound, second compound 0.1 µM
  IC50: > 100 nM
Curve of first compound, second compound 0.316 µM
  IC50: > 100 nM
Curve of first compound, second compound 1 µM
  IC50: > 100 nM
Second compound 0.01 µM, first compound 0.000316 µM
  viability, T/C: 90.1%
Second compound 0.01 µM, first compound 0.001 µM
  viability, T/C: 93.5%
Second compound 0.01 µM, first compound 0.00316 µM
  viability, T/C: 86.5%
Second compound 0.01 µM, first compound 0.01 µM
  viability, T/C: 92.9%
Second compound 0.01 µM, first compound 0.0316 µM
  viability, T/C: 95.8%
Second compound 0.01 µM, first compound 0.1 µM
  viability, T/C: 86.8%
Second compound 0.0316 µM, first compound 0.000316 µM
  viability, T/C: 86.3%
Second compound 0.0316 µM, first compound 0.001 µM
  viability, T/C: 83.8%
Second compound 0.0316 µM, first compound 0.00316 µM
  viability, T/C: 87.4%
Second compound 0.0316 µM, first compound 0.01 µM
  viability, T/C: 72%
Second compound 0.0316 µM, first compound 0.0316 µM
  viability, T/C: 80.2%
Second compound 0.0316 µM, first compound 0.1 µM
  viability, T/C: 86.1%
Second compound 0.1 µM, first compound 0.000316 µM
  viability, T/C: 86.1%
Second compound 0.1 µM, first compound 0.001 µM
  viability, T/C: 87.5%
Second compound 0.1 µM, first compound 0.00316 µM
  viability, T/C: 75.1%
Second compound 0.1 µM, first compound 0.01 µM
  viability, T/C: 64.5%
Second compound 0.1 µM, first compound 0.0316 µM
  viability, T/C: 80.5%
Second compound 0.1 µM, first compound 0.1 µM
  viability, T/C: 86%
Second compound 0.316 µM, first compound 0.000316 µM
  viability, T/C: 75.2%
Second compound 0.316 µM, first compound 0.001 µM
  viability, T/C: 73.1%
Second compound 0.316 µM, first compound 0.00316 µM
  viability, T/C: 73%
Second compound 0.316 µM, first compound 0.01 µM
  viability, T/C: 71.9%
Second compound 0.316 µM, first compound 0.0316 µM
  viability, T/C: 77.3%
Second compound 0.316 µM, first compound 0.1 µM
  viability, T/C: 64.2%
Second compound 1 µM, first compound 0.000316 µM
  viability, T/C: 66.8%
Second compound 1 µM, first compound 0.001 µM
  viability, T/C: 73%
Second compound 1 µM, first compound 0.00316 µM
  viability, T/C: 73.1%
Second compound 1 µM, first compound 0.01 µM
  viability, T/C: 63.4%
Second compound 1 µM, first compound 0.0316 µM
  viability, T/C: 67.6%
Second compound 1 µM, first compound 0.1 µM
  viability, T/C: 71.4%
